The target of test [1] is T1, B1R receptor of the rat (rB1R) (Rattus norvegicus, UniProt P97583).
T1 construct: host or cells: CHO K1 cells
T1 sequence (P97583 1-337): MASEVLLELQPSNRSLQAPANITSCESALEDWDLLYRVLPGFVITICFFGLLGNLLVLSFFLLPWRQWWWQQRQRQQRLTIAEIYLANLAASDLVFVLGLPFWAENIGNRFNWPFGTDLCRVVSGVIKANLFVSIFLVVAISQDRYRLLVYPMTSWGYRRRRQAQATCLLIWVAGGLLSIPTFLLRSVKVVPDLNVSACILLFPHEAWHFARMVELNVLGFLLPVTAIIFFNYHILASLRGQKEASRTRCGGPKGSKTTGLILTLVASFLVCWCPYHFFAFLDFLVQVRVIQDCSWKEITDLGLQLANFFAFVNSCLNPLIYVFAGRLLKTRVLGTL
The test is described as follows: FLIPR Ca2+ assay on rB1R-transfected CHO K1 cells, antagonistic action. Format: cell-based.

The target of test [2] is T2, human B1R receptor (hB1R) (Homo sapiens, UniProt P46663).
T2 construct: host or cells: CHO K1 cells
T2 sequence (P46663 1-353): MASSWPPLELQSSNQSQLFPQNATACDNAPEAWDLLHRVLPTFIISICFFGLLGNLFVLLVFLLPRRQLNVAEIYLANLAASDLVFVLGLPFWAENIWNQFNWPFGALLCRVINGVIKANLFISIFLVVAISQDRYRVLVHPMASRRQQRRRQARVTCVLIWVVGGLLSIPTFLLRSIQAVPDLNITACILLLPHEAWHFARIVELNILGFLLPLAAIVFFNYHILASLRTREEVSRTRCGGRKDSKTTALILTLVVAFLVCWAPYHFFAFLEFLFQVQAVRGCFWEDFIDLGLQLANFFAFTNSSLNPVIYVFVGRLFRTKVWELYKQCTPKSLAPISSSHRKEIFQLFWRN
The test is described as follows: FLIPR Ca2+ assay on hB1R-transfected CHO K1 cells, antagonistic action. The test is classed as cell-based.

Where [3] appears, read: CHO-K1, 10 μM test substance, agonist Des-Arg9-bradykinin 100 nM, % of maximum achievable inhibition, read-out: rB1R [10 μM] % inhibition.
Where [4] appears, read: CHO-K1, 10 μM test substance, agonist Lys-Des-Arg9-bradykinin 0.5 nM, % of maximum achievable inhibition, read-out: hB1R [10 μM] % inhibition.

SMILES strings stand for the structures. Read-outs that look alike come from different tables or passages of the source.

On to `COc1cc(C)c(S(=O)(=O)N(C)CCOCC(=O)N2CCC(c3ccccc3)(N3CCN(c4ccncc4)CC3)CC2)c(C)c1` [Compound 69, 4-methoxy-N,2,6-trimethyl-N-(2-(2-oxo-2-(4-phenyl-4-(4-(pyridin-4-yl)piperazin-1-yl)piperidin-1-yl)ethoxy)ethyl)benzenesulfonamide], for which the inhibition at 10 µM in test [1] (setting [3]) was 99%; in test [2] (setting [4]), 102%.

As to `CN1CCN(C2(c3cccc(F)c3)CCN(C(=O)CCCC3CCCCN3S(=O)(=O)c3cccc4ccccc34)CC2)CC1` (stereo not drawn) [Compound 215, 1-(4-(3-Fluorophenyl)-4-(4-methylpiperazin-1-yl)piperidin-1-yl)-4-(1-(naphthalen-1-ylsulfonyl)piperidin-2-yl)butan-1-one], the inhibition at 10 µM in test [1] (CHO-K1, read-out: rB1R [10 μM] % inhibition) came out at 100%; in test [2] (CHO-K1, read-out: hB1R [10 μM] % inhibition), 100%.

With `COc1cc(C)c(S(=O)(=O)N2CCCCC2COCC(=O)NC2CCC(Cc3ccccc3)(N3CCOCC3)CC2)c(C)c1` (stereo not drawn) [Compound 155, N-(4-benzyl-4-morpholinocyclohexyl)-2-((1-(4-methoxy-2,6-dimethylphenylsulfonyl)piperidin-2-yl)methoxy)acetamide], the results for the inhibition at 10 µM in test [1] (setting [3]) and in test [2] (setting [4]) were 100% and 97%, respectively.

Consider `COc1cc(C)c(S(=O)(=O)N2CCCC2COCC(=O)NCC2CCC(Cc3ccccc3)(N3CCOCC3)CC2)c(C)c1` (stereo not drawn) [Compound 169, N-((4-benzyl-4-morpholinocyclohexyl)methyl)-2-((1-(4-methoxy-2,6-dimethylphenylsulfonyl)pyrrolidin-2-yl)methoxy)acetamide], for which the values for the inhibition at 10 µM in test [1] (setting [3]) and in test [2] (setting [4]) were 86% and 41%, respectively.

Take `Cc1cc(S(=O)(=O)N2CCCCC2CCC(=O)N(C)CCC2CCC(CCc3ccccc3)(N3CCCC3)CC2)c(C)cc1Cl` (stereo not drawn) [Compound 131, 3-(1-(4-chloro-2,5-dimethylphenylsulfonyl)piperidin-2-yl)-N-methyl-N-(2-(4-phenethyl-4-(pyrrolidin-1-yl)cyclohexyl)ethyl)propanamide]: the inhibition at 10 µM turned out to be 47% in test [1] (setting [3]) and 99% in test [2] (setting [4]).

Regarding `COc1cc(C)c(S(=O)(=O)N(C)CCOCC(=O)N2CCC(c3cccc(F)c3)(N3CCN(C)CC3)CC2)c(C)c1` [Compound 210, N-(2-(2-(4-(3-Fluorophenyl)-4-(4-methylpiperazin-1-yl)piperidin-1-yl)-2-oxoethoxy)ethyl)-4-methoxy-N,2,6-trimethylbenzenesulfonamide], the inhibition at 10 µM was 101% in test [1] (setting [3]) and 100% in test [2] (setting [4]).

As for `CN(C)C1(Cc2ccccc2)CCN(C(=O)COCC2CCc3ccccc3N2S(=O)(=O)c2ccc(Cl)c(Cl)c2)CC1` (stereo not drawn) [Compound 36, 1-(4-benzyl-4-(dimethylamino)piperidin-1-yl)-2-((1-(3,4-dichlorophenylsulfonyl)-1,2,3,4-tetrahydroquinolin-2-yl)methoxy)ethanone], the inhibition at 10 µM in test [1] (setting [3]) and in test [2] (setting [4]) was 101% each time.

For the compound `CN(CCC1CCC(CCc2ccccc2)(N(C)C)CC1)C(=O)CC1CCCCN1S(=O)(=O)c1cccc(C(F)(F)F)c1` (stereo not drawn) [Compound 76, N-(2-(4-(dimethylamino)-4-phenethylcyclohexyl)ethyl)-N-methyl-2-(1-(3-(trifluoromethyl)phenylsulfonyl)piperidin-2-yl)acetamide], the inhibition at 10 µM in test [1] (setting [3]) stood at 99%; in test [2] (setting [4]), 98%.

Regarding `COc1ccc(S(=O)(=O)N2CCCCC2CCOCC(=O)NC2CCC(c3ccccc3)(N(C)C)CC2)cc1` (stereo not drawn) [Compound 19, N-(4-(dimethylamino)-4-phenylcyclohexyl)-2-(2-(1-(4-methoxyphenylsulfonyl)piperidin-2-yl)ethoxy)acetamide], the figures for the inhibition at 10 µM in test [1] (setting [3]) and in test [2] (setting [4]) were 73% and 51%, respectively.

For the compound `Cc1cc(S(=O)(=O)N2CCCCC2CCC(=O)N2CCC(c3cccc(F)c3)(N3CCN(C)CC3)CC2)c(C)cc1Cl` (stereo not drawn) [Compound 135, 3-(1-(4-chloro-2,5-dimethylphenylsulfonyl)piperidin-2-yl)-1-(4-(3-fluorophenyl)-4-(4-methylpiperazin-1-yl)piperidin-1-yl)propan-1-one], the figures for the inhibition at 10 µM in test [1] (setting [3]) and in test [2] (setting [4]) were 37% and 104%, respectively.

Take `COc1cc(C)c(S(=O)(=O)N2CCCCC2COCC(=O)N2CCC(Cc3ccccc3)(N(C)C)CC2)c(C)c1` (stereo not drawn) [Compound 65, 1-(4-benzyl-4-(dimethylamino)piperidin-1-yl)-2-((1-(4-methoxy-2,6-dimethylphenylsulfonyl)piperidin-2-yl)methoxy)ethanone]: the inhibition at 10 µM was 100% in test [1] (setting [3]) and 104% in test [2] (setting [4]).

As for `COc1cc(C)c(S(=O)(=O)N2CCCCC2COCC(=O)N(C)CCC2CCC(c3ccccc3)(N(C)C)CC2)c(C)c1` (stereo not drawn) [Compound 81, N-(2-(4-(dimethylamino)-4-phenylcyclohexyl)ethyl)-2-((1-(4-methoxy-2,6-dimethylphenylsulfonyl)piperidin-2-yl)methoxy)-N-methylacetamide], the inhibition at 10 µM in test [1] (setting [3]) was determined as 99%; in test [2] (setting [4]), 104%.

Consider `COc1cc(C)c(S(=O)(=O)N(C)CCOCC(=O)N(C)CCC2CCC(Cc3ccccc3)(N3CCCC3)CC2)c(C)c1` (stereo not drawn) [Compound 39, N-(2-(4-benzyl-4-(pyrrolidin-1-yl)cyclohexyl)ethyl)-2-(2-(4-methoxy-N,2,6-trimethylphenylsulfonamido)ethoxy)-N-methylacetamide], for which the inhibition at 10 µM in test [1] (setting [3]) was found to be 101%; in test [2] (setting [4]), 105%.

Take `COc1cc(C)c(S(=O)(=O)N2CCC(OCC(=O)N(C)CC3CCC(Cc4ccccc4)(N4CCN(C)CC4)CC3)C2)c(C)c1` (stereo not drawn) [Compound 174, N-((4-benzyl-4-(4-methylpiperazin-1-yl)cyclohexyl)methyl)-2-(1-(4-methoxy-2,6-dimethylphenylsulfonyl)pyrrolidin-3-yloxy)-N-methylacetamide]: the values for the inhibition at 10 µM in test [1] (setting [3]) and in test [2] (setting [4]) were 78% and 99%, respectively.

`CN(CCOCC(=O)NC1CCC(c2ccccc2)(N2CCCC2)CC1)S(=O)(=O)c1ccc(Cl)cc1Cl` (stereo not drawn) [Compound 179, 2-(2-(2,4-dichloro-N-methylphenylsulfonamido)ethoxy)-N-(4-phenyl-4-(pyrrolidin-1-yl)cyclohexyl)acetamide]: the inhibition at 10 µM in test [1] (setting [3]) was 75%; in test [2] (setting [4]), 41%.

Turning to `Cc1cc(S(=O)(=O)N2CCCCC2CCC(=O)N2CCC(c3ccc(F)cc3)(N3CCN(C)CC3)CC2)c(C)cc1Cl` (stereo not drawn) [Compound 138, 3-(1-(4-chloro-2,5-dimethylphenylsulfonyl)piperidin-2-yl)-1-(4-(4-fluorophenyl)-4-(4-methylpiperazin-1-yl)piperidin-1-yl)propan-1-one], the inhibition at 10 µM amounted to 28% in test [1] (setting [3]) and 102% in test [2] (setting [4]).

Turning to `COc1cc(C)c(S(=O)(=O)N2CCC(OCC(=O)NC3CCC(CCc4ccccc4)(N(C)C)CC3)C2)c(C)c1` (stereo not drawn) [Compound 5, N-(4-(dimethylamino)-4-phenethylcyclohexyl)-2-(1-(4-methoxy-2,6-dimethylphenylsulfonyl)pyrrolidin-3-yloxy)acetamide], the inhibition at 10 µM was 100% in test [1] (setting [3]) and 104% in test [2] (setting [4]).

With `Cc1cc(S(=O)(=O)N2CCCCC2CCC(=O)N(C)CCC2CCC(c3ccccc3)(N3CCCC3)CC2)c(C)cc1Cl` (stereo not drawn) [Compound 139, 3-(1-(4-chloro-2,5-dimethylphenylsulfonyl)piperidin-2-yl)-N-methyl-N-(2-(4-phenyl-4-(pyrrolidin-1-yl)cyclohexyl)ethyl)propanamide], the inhibition at 10 µM in test [1] (setting [3]) came to 24%; in test [2] (setting [4]), 105%.

For `CN1CCN(C2(c3cccc(F)c3)CCN(C(=O)COCC3COc4ccccc4N3S(=O)(=O)c3ccccc3C(F)(F)F)CC2)CC1` (stereo not drawn) [Compound 223, 1-(4-(3-Fluorophenyl)-4-(4-methylpiperazin-1-yl)piperidin-1-yl)-2-((4-(2-(trifluoromethyl)phenylsulfonyl)-3,4-dihydro-2H-benzo[b][1,4]oxazin-3-yl)methoxy)ethanone], the inhibition at 10 µM in test [1] (setting [3]) stood at 97%; in test [2] (setting [4]), 84%.

For the compound `COc1cc(C)c(S(=O)(=O)N2CCCCC2COCC(=O)N2CCC(c3ccccc3)(N3CCN(c4ccncc4)CC3)CC2)c(C)c1` (stereo not drawn) [Compound 62, 2-((1-(4-methoxy-2,6-dimethylphenylsulfonyl)piperidin-2-yl)methoxy)-1-(4-phenyl-4-(4-(pyridin-4-yl)piperazin-1-yl)piperidin-1-yl)ethanone], the inhibition at 10 µM is 100% in test [1] (setting [3]) and 103% in test [2] (setting [4]).

For the compound `COc1cc(C)c(S(=O)(=O)N2CCCCC2COCC(=O)N(C)CC2CCC(Cc3ccccc3)(N3CCN(C)CC3)CC2)c(C)c1` (stereo not drawn) [Compound 143, N-((4-benzyl-4-(4-methylpiperazin-1-yl)cyclohexyl)methyl)-2-((1-(4-methoxy-2,6-dimethylphenylsulfonyl)piperidin-2-yl)methoxy)-N-methylacetamide], the values for the inhibition at 10 µM in test [1] (setting [3]) and in test [2] (setting [4]) were 111% and 103%, respectively.

For the origin of these results see US20090253669A1, “Substituted Sulfonamide Compounds” (GRUENENTHAL GmbH, priority 2008, published 2009).
